HELM strings list units from the 5' end as sugar, base in round brackets, then linkage (d deoxyribose, r ribose, m 2'-O-methyl, p phosphodiester). Strings are as the collection lists them; they lack the last nucleoside at the 3' end of the tested compound. [moe] = 2'-O-(2-methoxyethyl) (MOE); [sp] = phosphorothioate linkage; [m5C] = 5-methylcytosine

These results are taken from the OligoGym collection.

This series deals with SMN2. Description: mouse, dose not given. Particulars: ASO.

Consider “RNA1{[moe](A)[sp].[moe](G)[sp].[moe](A)[sp].[moe](T)[sp].[moe](T)[sp].[moe]([m5C])[sp].[moe](A)[sp].[moe]([m5C])[sp].[moe](T)[sp].[moe](T)[sp].[moe](T)[sp].[moe]([m5C])[sp].[moe](A)[sp].[moe](T)[sp].[moe](A)[sp].[moe](A)[sp].[moe](T)[sp].[moe](G)[sp].[moe]([m5C])}$$$$ (last 3' nucleoside missing)”, for which the 3 h FOB score came to 3.5 score 0-7.

“RNA1{[moe](A)[sp].[moe](T)[sp].[moe](T)[sp].[moe]([m5C])[sp].[moe](A)[sp].[moe]([m5C])[sp].[moe](T)[sp].[moe](T)[sp].[moe](T)[sp].[moe]([m5C])[sp].[moe](A)[sp].[moe](T)[sp].[moe](A)[sp].[moe](A)[sp].[moe](T)[sp].[moe](G)[sp].[moe]([m5C])[sp].[moe](T)[sp].[moe](G)}$$$$ (last 3' nucleoside missing)” gave a 3 h FOB score of 4 score 0-7. The same measure for “RNA1{[moe](A)[sp].[moe](T)[sp].[moe](T)[sp].[moe]([m5C])[sp].[moe](A)[sp].[moe]([m5C])[sp].[moe](T)[sp].[moe](T)[sp].[moe](T)[sp].[moe]([m5C])[sp].[moe](A)[sp].[moe](T)[sp].[moe](A)[sp].[moe](A)[sp].[moe](T)[sp].[moe](G)[sp].[moe]([m5C])[sp].[moe](T)}$$$$ (last 3' nucleoside missing)”: 3.5 score 0-7; for “RNA1{[moe](A)[sp].[moe](T)[sp].[moe](T)[sp].[moe]([m5C])[sp].[moe](A)[sp].[moe]([m5C])[sp].[moe](T)[sp].[moe](T)[sp].[moe](T)[sp].[moe]([m5C])[sp].[moe](A)[sp].[moe](T)[sp].[moe](A)[sp].[moe](A)[sp].[moe](T)[sp].[moe](G)[sp].[moe]([m5C])p.[moe](T)[sp].[moe](G)}$$$$ (last 3' nucleoside missing)”: 4 score 0-7; for “RNA1{[moe](A)[sp].[moe](T)[sp].[moe](T)[sp].[moe]([m5C])[sp].[moe](A)[sp].[moe]([m5C])[sp].[moe](T)[sp].[moe](T)[sp].[moe](T)[sp].[moe]([m5C])[sp].[moe](A)[sp].[moe](T)[sp].[moe](A)[sp].[moe](A)[sp].[moe](T)[sp].[moe](G)p.[moe]([m5C])p.[moe](T)[sp].[moe](G)}$$$$ (last 3' nucleoside missing)”: 3 score 0-7. For the substance “RNA1{[moe](A)[sp].[moe](T)[sp].[moe](T)[sp].[moe]([m5C])[sp].[moe](A)[sp].[moe]([m5C])[sp].[moe](T)[sp].[moe](T)[sp].[moe](T)[sp].[moe]([m5C])[sp].[moe](A)[sp].[moe](T)[sp].[moe](A)[sp].[moe](A)[sp].[moe](T)p.[moe](G)[sp].[moe]([m5C])p.[moe](T)[sp].[moe](G)}$$$$ (last 3' nucleoside missing)”, the 3 h FOB score was 2 score 0-7. The same measure for “RNA1{[moe](A)[sp].[moe](T)[sp].[moe](T)[sp].[moe]([m5C])[sp].[moe](A)[sp].[moe]([m5C])[sp].[moe](T)[sp].[moe](T)[sp].[moe](T)[sp].[moe]([m5C])p.[moe](A)[sp].[moe](T)[sp].[moe](A)[sp].[moe](A)[sp].[moe](T)[sp].[moe](G)[sp].[moe]([m5C])[sp].[moe](T)[sp].[moe](G)}$$$$ (last 3' nucleoside missing)”: 4 score 0-7; for “RNA1{[moe](A)[sp].[moe](T)[sp].[moe](T)[sp].[moe]([m5C])[sp].[moe](A)[sp].[moe]([m5C])[sp].[moe](T)[sp].[moe](T)[sp].[moe](T)[sp].[moe]([m5C])p.[moe](A)[sp].[moe](T)[sp].[moe](A)[sp].[moe](A)[sp].[moe](T)[sp].[moe](G)[sp].[moe]([m5C])p.[moe](T)[sp].[moe](G)}$$$$ (last 3' nucleoside missing)”: 2.75 score 0-7.

The substance “RNA1{[moe](A)[sp].[moe](T)[sp].[moe](T)[sp].[moe]([m5C])[sp].[moe](A)[sp].[moe]([m5C])[sp].[moe](T)[sp].[moe](T)[sp].[moe](T)p.[moe]([m5C])p.[moe](A)[sp].[moe](T)[sp].[moe](A)[sp].[moe](A)[sp].[moe](T)[sp].[moe](G)[sp].[moe]([m5C])[sp].[moe](T)[sp].[moe](G)}$$$$ (last 3' nucleoside missing)” registered a 3 h FOB score of 4 score 0-7.

In turn, “RNA1{[moe](A)[sp].[moe](T)p.[moe](T)[sp].[moe]([m5C])[sp].[moe](A)[sp].[moe]([m5C])[sp].[moe](T)[sp].[moe](T)[sp].[moe](T)[sp].[moe]([m5C])[sp].[moe](A)[sp].[moe](T)[sp].[moe](A)[sp].[moe](A)[sp].[moe](T)[sp].[moe](G)[sp].[moe]([m5C])[sp].[moe](T)[sp].[moe](G)}$$$$ (last 3' nucleoside missing)” returned a 3 h FOB score of 4 score 0-7. The same measure for “RNA1{[moe](A)[sp].[moe](T)p.[moe](T)[sp].[moe]([m5C])[sp].[moe](A)[sp].[moe]([m5C])[sp].[moe](T)[sp].[moe](T)[sp].[moe](T)[sp].[moe]([m5C])[sp].[moe](A)[sp].[moe](T)[sp].[moe](A)[sp].[moe](A)[sp].[moe](T)[sp].[moe](G)[sp].[moe]([m5C])p.[moe](T)[sp].[moe](G)}$$$$ (last 3' nucleoside missing)”: 2 score 0-7; for “RNA1{[moe](A)[sp].[moe](T)p.[moe](T)[sp].[moe]([m5C])[sp].[moe](A)[sp].[moe]([m5C])[sp].[moe](T)[sp].[moe](T)[sp].[moe](T)[sp].[moe]([m5C])p.[moe](A)[sp].[moe](T)[sp].[moe](A)[sp].[moe](A)[sp].[moe](T)[sp].[moe](G)[sp].[moe]([m5C])[sp].[moe](T)[sp].[moe](G)}$$$$ (last 3' nucleoside missing)”: 3.25 score 0-7. Under “RNA1{[moe](A)[sp].[moe](T)p.[moe](T)[sp].[moe]([m5C])p.[moe](A)[sp].[moe]([m5C])[sp].[moe](T)[sp].[moe](T)[sp].[moe](T)[sp].[moe]([m5C])[sp].[moe](A)[sp].[moe](T)[sp].[moe](A)[sp].[moe](A)[sp].[moe](T)[sp].[moe](G)[sp].[moe]([m5C])[sp].[moe](T)[sp].[moe](G)}$$$$ (last 3' nucleoside missing)” stands 3.5 score 0-7; under “RNA1{[moe](A)[sp].[moe](T)p.[moe](T)p.[moe]([m5C])[sp].[moe](A)[sp].[moe]([m5C])[sp].[moe](T)[sp].[moe](T)[sp].[moe](T)[sp].[moe]([m5C])[sp].[moe](A)[sp].[moe](T)[sp].[moe](A)[sp].[moe](A)[sp].[moe](T)[sp].[moe](G)[sp].[moe]([m5C])[sp].[moe](T)[sp].[moe](G)}$$$$ (last 3' nucleoside missing)”, 3.25 score 0-7. Under “RNA1{[moe](A)[sp].[moe]([m5C])[sp].[moe](T)[sp].[moe](T)[sp].[moe](T)[sp].[moe]([m5C])[sp].[moe](A)[sp].[moe](T)[sp].[moe](A)[sp].[moe](A)[sp].[moe](T)[sp].[moe](G)[sp].[moe]([m5C])[sp].[moe](T)[sp].[moe](G)[sp].[moe](G)[sp].[moe]([m5C])[sp].[moe](A)}$$$$ (last 3' nucleoside missing)” stands 0 score 0-7; under “RNA1{[moe](A)[sp].[moe]([m5C])[sp].[moe](T)[sp].[moe](T)[sp].[moe](T)[sp].[moe]([m5C])[sp].[moe](A)[sp].[moe](T)[sp].[moe](A)[sp].[moe](A)[sp].[moe](T)[sp].[moe](G)[sp].[moe]([m5C])[sp].[moe](T)[sp].[moe](G)[sp].[moe](G)}$$$$ (last 3' nucleoside missing)”, 1.12 score 0-7; under “RNA1{[moe](A)[sp].[moe]([m5C])[sp].[moe](T)[sp].[moe](T)[sp].[moe](T)[sp].[moe]([m5C])[sp].[moe](A)[sp].[moe](T)[sp].[moe](A)[sp].[moe](A)[sp].[moe](T)[sp].[moe](G)[sp].[moe]([m5C])[sp].[moe](T)[sp].[moe](G)}$$$$ (last 3' nucleoside missing)”, 3.75 score 0-7.

“RNA1{[moe](A)[sp].[moe]([m5C])[sp].[moe](T)[sp].[moe](T)[sp].[moe](T)[sp].[moe]([m5C])[sp].[moe](A)[sp].[moe](T)[sp].[moe](A)[sp].[moe](A)[sp].[moe](T)p.[moe](G)p.[moe]([m5C])p.[moe](T)p.[moe](G)[sp].[moe](G)}$$$$ (last 3' nucleoside missing)” registered a 3 h FOB score of 0 score 0-7. Under “RNA1{[moe](A)[sp].[moe]([m5C])[sp].[moe](T)[sp].[moe](T)[sp].[moe](T)[sp].[moe]([m5C])[sp].[moe](A)[sp].[moe](T)[sp].[moe](A)p.[moe](A)p.[moe](T)p.[moe](G)p.[moe]([m5C])[sp].[moe](T)[sp].[moe](G)[sp].[moe](G)}$$$$ (last 3' nucleoside missing)” stands 0 score 0-7.

For the substance “RNA1{[moe](A)[sp].[moe]([m5C])[sp].[moe](T)[sp].[moe](T)[sp].[moe](T)[sp].[moe]([m5C])[sp].[moe](A)[sp].[moe](T)p.[moe](A)p.[moe](A)p.[moe](T)[sp].[moe](G)[sp].[moe]([m5C])[sp].[moe](T)[sp].[moe](G)[sp].[moe](G)}$$$$ (last 3' nucleoside missing)”, the 3 h FOB score turned out to be 1 score 0-7. The substance “RNA1{[moe](A)[sp].[moe]([m5C])[sp].[moe](T)[sp].[moe](T)[sp].[moe](T)[sp].[moe]([m5C])[sp].[moe](A)p.[moe](T)p.[moe](A)p.[moe](A)p.[moe](T)[sp].[moe](G)[sp].[moe]([m5C])[sp].[moe](T)[sp].[moe](G)[sp].[moe](G)}$$$$ (last 3' nucleoside missing)” came in with a 3 h FOB score of 0.25 score 0-7. Under “RNA1{[moe](A)[sp].[moe]([m5C])[sp].[moe](T)[sp].[moe](T)[sp].[moe](T)[sp].[moe]([m5C])[sp].[moe](A)p.[moe](T)p.[moe](A)p.[moe](A)p.[moe](T)p.[moe](G)[sp].[moe]([m5C])[sp].[moe](T)[sp].[moe](G)[sp].[moe](G)}$$$$ (last 3' nucleoside missing)” stands 0 score 0-7.
